Assay results reported in the supplement of paper PMC9663587.

Assays:
BSJ-03-123 [1] = compound: T1, CC(=O)c1c(C)c2cnc(Nc3ccc(N4CCN(CCOCCOCCOCCNC(=O)COc5cccc6c5C(=O)N(C5CCC(=O)NC5=O)C6=O)CC4)cn3)nc2n(C2CCCC2)c1=O [BSJ-03-123]
Taselisib/GDC0032 = compound: Cc1nc(-c2cn3c(n2)-c2ccc(-c4cnn(C(C)(C)C(N)=O)c4)cc2OCC3)n(C(C)C)n1 [Taselisib/GDC0032]
Ceritinib/LDK378 = compound: Cc1cc(Nc2ncc(Cl)c(Nc3ccccc3S(=O)(=O)C(C)C)n2)c(OC(C)C)cc1C1CCNCC1 [Ceritinib/LDK378]
Neratinib/HKI272 [2] = compound: T2, CCOc1cc2ncc(C#N)c(Nc3ccc(OCc4ccccn4)c(Cl)c3)c2cc1NC(=O)/C=C/CN(C)C [Neratinib/HKI272]
Doxorubicin = compound: COc1cccc2c1C(=O)c1c(O)c3c(c(O)c1C2=O)C[C@@](O)(C(=O)CO)C[C@@H]3O[C@H]1C[C@H](N)[C@H](O)[C@H](C)O1 [Doxorubicin]
THZ531 [3] = compound: T3, CN(C)C/C=C/C(=O)Nc1ccc(C(=O)N2CCC[C@@H](Nc3ncc(Cl)c(-c4c[nH]c5ccccc45)n3)C2)cc1 [THZ531]
BSJ-01-175 = compound: CN(C)C/C=C/C(=O)Nc1ccc(O[C@@H]2CCC[C@@H](Nc3ncc(Cl)c(-c4c[nH]c5ccccc45)n3)C2)cc1 [BSJ-01-175]
[4] = compound: CC(=O)Nc1cccc(-n2c(=O)n(C3CC3)c(=O)c3c(Nc4ccc(I)cc4F)n(C)c(=O)c(C)c32)c1
Dasatinib = compound: Cc1nc(Nc2ncc(C(=O)Nc3c(C)cccc3Cl)s2)cc(N2CCN(CCO)CC2)n1 [Dasatinib]
[5] = compound: CO[C@@H](C)Cn1c(=O)n(C)c2cnc3ccc(-c4cncc(C(C)(C)O)c4)cc3c21
Rucaparib = compound: CNCc1ccc(-c2[nH]c3cc(F)cc4c3c2CCNC4=O)cc1 [Rucaparib]
INK128/MLN0128 = compound: CC(C)n1nc(-c2ccc3oc(N)nc3c2)c2c(N)ncnc21 [INK128/MLN0128]
AZD2014 = compound: CNC(=O)c1cccc(-c2ccc3c(N4CCOC[C@@H]4C)nc(N4CCOC[C@@H]4C)nc3n2)c1 [AZD2014]
Vorinostat = compound: O=C(CCCCCCC(=O)Nc1ccccc1)NO [Vorinostat]
Volasertib/BI6727 = compound: CC[C@@H]1C(=O)N(C)c2cnc(Nc3ccc(C(=O)N[C@H]4CC[C@H](N5CCN(CC6CC6)CC5)CC4)cc3OC)nc2N1C(C)C [Volasertib/BI6727]
[6] = compound: CC(=O)c1c(C)c2cnc(Nc3ccc(N4CCNCC4)cn3)nc2n(C2CCCC2)c1=O
BSJ-03-123 [7] = compound: T1, BSJ-03-123; assay: increase in dead-cell fraction, 72 h; higher = more death;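 note: breast cancer cell lines in 384-well plates, stained with Hoechst plus LIVE/DEAD far red dye and imaged, cells above an LDR intensity threshold counted dead, Hoechst-negative corpses included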
[8] = compound: CCc1cnn2c(NCc3ccc[n+]([O-])c3)cc(N3CCCC[C@H]3CCO)nc12; assay: as above
THZ1 = compound: CN(C)C/C=C/C(=O)Nc1ccc(C(=O)Nc2cccc(Nc3ncc(Cl)c(-c4c[nH]c5ccccc45)n3)c2)cc1 [THZ1]; assay: as above
Neratinib/HKI272 [9] = compound: T2, Neratinib/HKI272; assay: as above
THZ531 [10] = compound: T3, THZ531; assay: as above
YKL-5-124 = compound: C=CC(=O)Nc1ccc(C(=O)Nc2[nH]nc3c2CN(C(=O)N[C@H](CN(C)C)c2ccccc2)C3(C)C)cc1 [YKL-5-124]; assay: as above
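Throughout, for GR50, 72 h: breast cancer and non-malignant breast epithelial cell lines, Deep Dye Drop or Dye Drop imaging, nine half-log doses, GR normalized to time-zero plates and DMSO-only controls.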

With CAL120 the “GR50, 72 h” value (BSJ-03-123 [1]) was 5.27 µM, the “GR50, 72 h” value (Taselisib/GDC0032) was 2.53 µM and the “GR50, 72 h” value (Ceritinib/LDK378) was 0.799 µM. The “GR50, 72 h” value (Neratinib/HKI272 [2]) was 0.585 µM, the “GR50, 72 h” value (Doxorubicin) was 0.00944 µM and the “GR50, 72 h” value (THZ531 [3]) was 0.15 µM. The “GR50, 72 h” value (BSJ-01-175) was 0.0411 µM, the “GR50, 72 h” value [4] was 0.0468 µM and the “GR50, 72 h” value (Dasatinib) was 0.0496 µM. For the same cell line, the “GR50, 72 h” value [5] was 0.00177 µM, the “GR50, 72 h” value (Rucaparib) was over 10 µM and the “GR50, 72 h” value (INK128/MLN0128) was 0.0115 µM. The “GR50, 72 h” value (AZD2014) was 0.184 µM, the “GR50, 72 h” value (Vorinostat) was 1.35 µM and the “GR50, 72 h” value (Volasertib/BI6727) was 0.00185 µM. The “GR50, 72 h” value [6] was over 3.16 µM, the “increase in dead-cell fraction” value (BSJ-03-123 [7]; 0.001 µM) was -0.0001 and the “increase in dead-cell fraction” value (BSJ-03-123 [7]; 0.003162 µM) was 0.0019. For the same cell line, the “increase in dead-cell fraction” value (BSJ-03-123 [7]; 0.01 µM) was -0.0014, the “increase in dead-cell fraction” value (BSJ-03-123 [7]; 0.03162 µM) was -0.0007 and the “increase in dead-cell fraction” value (BSJ-03-123 [7]; 0.1 µM) was -0.0013. For the same cell line, the “increase in dead-cell fraction” value (BSJ-03-123 [7]; 0.3162 µM) was 0.0033, the “increase in dead-cell fraction” value (BSJ-03-123 [7]; 1 µM) was 0.004 and the “increase in dead-cell fraction” value (BSJ-03-123 [7]; 3.162 µM) was 0.0059. The “increase in dead-cell fraction” value (BSJ-03-123 [7]; 10 µM) was 0.0482, the “increase in dead-cell fraction” value ([8]; 0.0001 µM) was -0.0093 and the “increase in dead-cell fraction” value ([8]; 0.0003162 µM) was -0.0043. The “increase in dead-cell fraction” value ([8]; 0.001 µM) was -0.0016, the “increase in dead-cell fraction” value ([8]; 0.003162 µM) was 0.0101 and the “increase in dead-cell fraction” value ([8]; 0.01 µM) was 0.132. For the same cell line, the “increase in dead-cell fraction” value ([8]; 0.03162 µM) was 0.241, the “increase in dead-cell fraction” value ([8]; 0.1 µM) was 0.233 and the “increase in dead-cell fraction” value ([8]; 0.3162 µM) was 0.25. The “increase in dead-cell fraction” value ([8]; 1 µM) was 0.208, the “increase in dead-cell fraction” value (THZ1; 0.0001 µM) was -0.0036 and the “increase in dead-cell fraction” value (THZ1; 0.0003162 µM) was 0.0008. For the same cell line, the “increase in dead-cell fraction” value (THZ1; 0.001 µM) was -0.0008, the “increase in dead-cell fraction” value (THZ1; 0.003162 µM) was 0.0033 and the “increase in dead-cell fraction” value (THZ1; 0.01 µM) was 0.0048. For the same cell line, the “increase in dead-cell fraction” value (THZ1; 0.03162 µM) was 0.0266, the “increase in dead-cell fraction” value (THZ1; 0.1 µM) was 0.0311 and the “increase in dead-cell fraction” value (THZ1; 0.3162 µM) was 0.0265. For the same cell line, the “increase in dead-cell fraction” value (THZ1; 1 µM) was 0.0708, the “increase in dead-cell fraction” value (Neratinib/HKI272 [9]; 0.0003162 µM) was -0.0012 and the “increase in dead-cell fraction” value (Neratinib/HKI272 [9]; 0.001 µM) was -0.0046. For the same cell line, the “increase in dead-cell fraction” value (Neratinib/HKI272 [9]; 0.003162 µM) was -0.0039, the “increase in dead-cell fraction” value (Neratinib/HKI272 [9]; 0.01 µM) was -0.0045 and the “increase in dead-cell fraction” value (Neratinib/HKI272 [9]; 0.03162 µM) was 0.0031. The “increase in dead-cell fraction” value (Neratinib/HKI272 [9]; 0.1 µM) was -0.0024, the “increase in dead-cell fraction” value (Neratinib/HKI272 [9]; 0.3162 µM) was 0.0027 and the “increase in dead-cell fraction” value (Neratinib/HKI272 [9]; 1 µM) was 0.0247. The “increase in dead-cell fraction” value (Neratinib/HKI272 [9]; 3.162 µM) was 0.571, the “increase in dead-cell fraction” value (THZ531 [10]; 0.0001 µM) was 0.0032 and the “increase in dead-cell fraction” value (THZ531 [10]; 0.0003162 µM) was -0.0012. The “increase in dead-cell fraction” value (THZ531 [10]; 0.001 µM) was -0.0004, the “increase in dead-cell fraction” value (THZ531 [10]; 0.003162 µM) was -0.0009 and the “increase in dead-cell fraction” value (THZ531 [10]; 0.01 µM) was -0.0022. For the same cell line, the “increase in dead-cell fraction” value (THZ531 [10]; 0.03162 µM) was 0.0046, the “increase in dead-cell fraction” value (THZ531 [10]; 0.1 µM) was 0.0275 and the “increase in dead-cell fraction” value (THZ531 [10]; 0.3162 µM) was 0.0465. For the same cell line, the “increase in dead-cell fraction” value (THZ531 [10]; 1 µM) was 0.0403, the “increase in dead-cell fraction” value (YKL-5-124; 0.001 µM) was 0.0168 and the “increase in dead-cell fraction” value (YKL-5-124; 0.003162 µM) was 0.0283. The “increase in dead-cell fraction” value (YKL-5-124; 0.01 µM) was 0.0348, the “increase in dead-cell fraction” value (YKL-5-124; 0.03162 µM) was 0.0304 and the “increase in dead-cell fraction” value (YKL-5-124; 0.1 µM) was 0.0343. The “increase in dead-cell fraction” value (YKL-5-124; 0.3162 µM) was 0.0427, the “increase in dead-cell fraction” value (YKL-5-124; 1 µM) was 0.0333 and the “increase in dead-cell fraction” value (YKL-5-124; 3.162 µM) was 0.0461. The “increase in dead-cell fraction” value (YKL-5-124; 10 µM) was 0.0476.
